Converted amounts (≈) assume the structure as drawn.
Key:
[1] = biological target: Cystic fibrosis transmembrane conductance regulator (Homo sapiens, UniProt P13569, F508DEL); assay: Potentiation of CFTR F508del mutant (unknown origin) expressed in human CFBE41o- cells co-expressing YFP incubated for 10 mins by halide potentiator assay; type: cell-based
[2] = Kinetic aqueous solubility of the compound at pH 7.4; type: physicochemical; conditions: buffer, read-out: Kinetic_solubility
[3] = Half life in Sprague-Dawley rat at 1 mg/kg, iv; type: ADME, organism-based; conditions: in vivo
[4] = Unbound intrinsic clearance in human liver microsomes; type: ADME, Microsome
[5] = Clearance in Sprague-Dawley rat at 1 mg/kg, iv; type: ADME, organism-based; conditions: in vivo
[6] = Inhibition of CYP450 (unknown origin); type: ADME; conditions: human
[7] = biological target: T1, Nuclear receptor subfamily 1 group I member 2 (Homo sapiens, UniProt O75469); assay: Activation of PXR (unknown origin) at 10 uM by CYP450 induction assay relative to rifampicin; type: ADME
T1 sequence (O75469 whole entry): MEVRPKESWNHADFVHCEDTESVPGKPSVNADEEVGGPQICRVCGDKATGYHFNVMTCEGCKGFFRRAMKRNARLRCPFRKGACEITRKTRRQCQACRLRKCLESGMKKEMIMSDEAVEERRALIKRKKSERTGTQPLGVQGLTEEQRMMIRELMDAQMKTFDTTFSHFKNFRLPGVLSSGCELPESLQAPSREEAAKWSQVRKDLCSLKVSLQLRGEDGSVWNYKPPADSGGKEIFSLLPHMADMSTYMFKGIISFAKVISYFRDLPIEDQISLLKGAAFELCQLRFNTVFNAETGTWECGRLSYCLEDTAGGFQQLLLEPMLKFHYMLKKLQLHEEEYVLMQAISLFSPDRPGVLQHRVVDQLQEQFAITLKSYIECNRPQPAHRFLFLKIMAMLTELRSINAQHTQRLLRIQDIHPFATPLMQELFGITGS

[8] = Unbound clearance in Sprague-Dawley rat at 1 mg/kg, iv; type: ADME, organism-based; conditions: in vivo
[9] = Unbound intrinsic clearance in rat liver microsomes; type: ADME, Microsome
[10] = Volume of distribution at steady state in Sprague-Dawley rat at 1 mg/kg, iv; type: ADME, organism-based; conditions: in vivo, read-out: Vdss
[11] = Genotoxicity in Salmonella typhimurium; type: toxicity; conditions: salmonella enterica subsp. enterica serovar typhimurium
[12] = Permeability of compound across apical to basolateral membrane in MDCK cells; type: ADME, cell-based, Canis lupus familiaris; conditions: dog, read-out: permeability
[13] = AUC in rat at 5 mg/kg, po; type: ADME, organism-based; set-up: dose 5 mg/kg; conditions: in vivo
[14] = Permeability efflux ratio in MDCK cells; type: ADME, cell-based, Canis lupus familiaris; conditions: dog
[15] = Unbound intrinsic clearance in rat hepatocytes; type: ADME, cell-based, Hepatocyte

Chain of Cystic fibrosis transmembrane conductance regulator (P13569 as listed by the source): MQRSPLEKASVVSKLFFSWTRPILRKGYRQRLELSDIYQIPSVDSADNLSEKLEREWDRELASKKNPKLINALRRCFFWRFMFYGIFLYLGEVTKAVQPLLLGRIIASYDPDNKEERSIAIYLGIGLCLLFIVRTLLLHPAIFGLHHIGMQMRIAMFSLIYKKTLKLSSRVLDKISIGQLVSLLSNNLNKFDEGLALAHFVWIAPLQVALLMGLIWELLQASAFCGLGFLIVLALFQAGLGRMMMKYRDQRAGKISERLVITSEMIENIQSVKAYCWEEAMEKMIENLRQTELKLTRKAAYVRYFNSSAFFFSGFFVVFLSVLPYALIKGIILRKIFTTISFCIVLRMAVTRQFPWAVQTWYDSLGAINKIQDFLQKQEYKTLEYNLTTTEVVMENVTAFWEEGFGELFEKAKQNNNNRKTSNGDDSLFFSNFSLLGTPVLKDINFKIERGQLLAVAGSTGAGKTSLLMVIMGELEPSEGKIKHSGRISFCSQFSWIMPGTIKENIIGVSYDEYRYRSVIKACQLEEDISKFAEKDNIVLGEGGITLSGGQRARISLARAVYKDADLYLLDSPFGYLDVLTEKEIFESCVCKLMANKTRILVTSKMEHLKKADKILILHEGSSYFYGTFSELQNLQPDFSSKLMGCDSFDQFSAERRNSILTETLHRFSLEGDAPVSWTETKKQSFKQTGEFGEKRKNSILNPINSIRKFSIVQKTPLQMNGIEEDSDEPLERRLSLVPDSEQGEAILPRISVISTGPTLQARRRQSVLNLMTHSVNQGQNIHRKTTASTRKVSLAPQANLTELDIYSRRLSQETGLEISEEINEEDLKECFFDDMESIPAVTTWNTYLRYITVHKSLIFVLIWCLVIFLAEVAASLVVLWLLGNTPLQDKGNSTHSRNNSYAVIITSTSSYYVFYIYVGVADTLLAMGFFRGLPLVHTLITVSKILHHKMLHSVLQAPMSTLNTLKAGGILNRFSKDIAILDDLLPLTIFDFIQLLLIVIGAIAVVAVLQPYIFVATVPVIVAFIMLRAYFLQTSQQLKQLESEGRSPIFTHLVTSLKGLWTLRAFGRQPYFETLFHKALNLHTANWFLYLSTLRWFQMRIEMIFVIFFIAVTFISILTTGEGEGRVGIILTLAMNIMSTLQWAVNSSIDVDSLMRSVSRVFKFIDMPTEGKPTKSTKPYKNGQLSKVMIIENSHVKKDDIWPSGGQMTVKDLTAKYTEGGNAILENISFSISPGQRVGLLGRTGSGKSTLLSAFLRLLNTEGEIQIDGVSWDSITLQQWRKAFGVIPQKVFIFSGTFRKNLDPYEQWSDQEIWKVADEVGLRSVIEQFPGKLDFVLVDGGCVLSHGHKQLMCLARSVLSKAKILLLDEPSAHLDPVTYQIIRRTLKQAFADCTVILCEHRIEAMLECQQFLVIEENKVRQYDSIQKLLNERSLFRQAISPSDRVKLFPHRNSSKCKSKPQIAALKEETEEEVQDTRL

Compound | EC50 [1] [nM] | solubility kinetic [2] [µM] | inhibition (INH) [6] | Activity [7] [%] | CL free [9] [mL/min/kg] | Papp A→B [12] [×10⁻⁶ cm/s] | efflux ratio [14] | also measured
CN(C[C@@H](O)C(F)(F)F)C(=O)c1ncc(S(=O)(=O)c2ccc(F)cc2)cc1N | > 2000 |  |  |  |  |  |  | 
Nc1cc(S(=O)(=O)c2ccccc2OC(F)(F)F)cnc1C(=O)NC[C@@H](O)C(F)(F)F | < 0.31 | 75 (≈ 35.5 µg/mL) | Not Active | 80 | 120 |  |  | half-life [3]: 6.7 h; CL free [4]: 45 mL/min/kg; clearance [5]: 9.83 mL/min/kg; CL free [8]: 258 mL/min/kg; Vd [10]: 5.1 L/kg
Nc1cc(S(=O)(=O)c2ccc(OC(F)(F)F)cc2)cnc1C(=O)NCC1(O)CC1 | 2.8 |  |  |  | 93.3 |  |  | 
CC(C)(O)CNC(=O)c1ncc(S(=O)(=O)c2ccc(OC(F)(F)F)cc2)cc1N | 33 | 37 (≈ 16 µg/mL) | Not Active | 41 | 93.3 |  |  | Activity [11]: Non-Toxic
CC(C)(O)C(=O)Nc1sc(S(=O)(=O)c2ccc(F)cc2)cc1C(N)=O | 26 |  |  |  | 30 | 4 | 5 | AUC [13]: 5600 ng·h/mL; CL free [15]: 46.7 mL/min/kg
NC(=O)c1cc(S(=O)(=O)N2CCCCC2)sc1NC(=O)c1ccn[nH]1 | 13 |  |  |  | 250 | 0.5 | 40 | 
Nc1cc(S(=O)(=O)c2ccc(OC(F)(F)F)cc2)cnc1C(=O)NC[C@@H](O)C(F)(F)F | 3.4 | < 19 | Not Active | 10 | 58.3 |  |  | half-life [3]: > 50 h; CL free [4]: 36.7 mL/min/kg; clearance [5]: 1.33 mL/min/kg; CL free [8]: 86.7 mL/min/kg; Vd [10]: 6 L/kg
NC(=O)c1cc(S(=O)(=O)c2ccc(F)cc2)sc1NC(=O)c1ccn[nH]1 | 29 |  |  |  | 71.7 | 0.9 | 37 | 
Nc1cc(S(=O)(=O)c2ccc(F)cc2)cnc1C(=O)N1CC(O)(C(F)(F)F)C1 | 1.1 |  |  |  | 28.3 |  |  | 
